{"source": "patent US9856232B1", "about": "“Dihydropyrimidinone derivatives” (KING SAUD UNIVERSITY, priority 2017, dated 2018)", "key": {"[1]": {"system": "Gastric lesions induced by 80% ethanol", "assay": "Gastric lesions induced by ethanol (ulcer index by severity scores)", "type": "in vivo, Albino Wistar rats", "conditions": "Rattus norvegicus, po, vs 80% EtOH group, read-out: Gastric lesions induced by 80% ethanol, % change"}, "[2]": {"system": "Gastric lesions induced by necrotizing agents (80% ethanol, 0.2 mol/L NaOH or 25% NaCl)", "assay": "Gastric lesions induced by necrotizing agents (cytoprotection)", "type": "in vivo, Albino Wistar rats", "conditions": "i.p, 30 min before necrotizing agent, mean ± SE"}, "[3]": {"system": "Hypothermic restraint stress-induced intraluminal bleeding and gastric lesion", "assay": "Hypothermic restraint stress-induced ulcers", "type": "in vivo, Albino Wistar rats", "parameters": "Gastric Lesion Ulcer Index: scale not given here", "conditions": "hypothermic restraint 3 h, mean ± SE"}, "[4]": {"system": "gastric wall mucus in stomach tissue, change induced by 80% ethanol", "assay": "Determination of gastric wall mucus (GWM)", "type": "in vivo, Albino Wistar rats", "conditions": "i.p, 80% ethanol-treated rats, mean ± SE", "description": "(§1) Albino Wistar rats of either sex, approximately the same age, weighing 150 to 200 g and fed on a diet of standard chow were used in this study. They were randomly divided into experimental groups of six rats each. Compounds (N-1 to N-18) 12.5, 25, and 50 mg/kg were given orally in the anti-ulcer studies and intraperitoneally for gastric secretion evaluation. The rats were sacrificed, and the stomachs removed and opened along the greater curvature, After washing with saline, the gastric lesions were quantified by a person unaware of the treatments. The animal study protocol was approved by the Research and Ethics Committee of the Experimental Animal Care Society, College of Pharmacy, King Saud University, Riyadh, Saudi Arabia.\nDetermination of gastric wall mucus (GWM): Gastric wall mucus was determined according to the modified procedure. The glandular segment of the stomach was separated from the rumen of the stomach, weighed, and transferred immediately to 10 mL of 0.1% w/v Alcian blue solution (in […] sucrose solution buffered with […] sodium acetate at pH 5. Tissue was stained for 2 hours in Alcian blue, and excess dye was removed by two successive rinses with 10 mL of […] sucrose, firstly after 15 minutes and then after 45 minutes. Dye complexed with the gastric wall mucus was extracted with 10 ml of […] magnesium chloride which was intermittently shaken for 1 minute at 30 minute intervals for 2 hours. Four milliliters of blue extract were then vigorously shaken with an equal volume of diethyl ether. The resulting emulsion was centrifuged at 4000 r/min for 10 minutes and the absorbance of the aqueous layer was recorded at 580 nm. The quantity of Alcian blue extracted per gram of wet glandular tissue was then calculated. Table 6 provides the effect of compounds on the change in gastric wall mucus in stomach tissue induced by 80% ethanol (mean±SE)."}, "[5]": {"system": "gastric mucosal non-protein sulfhydryls, induced by 80% ethanol", "assay": "Estimation of non-protein sulfhydryls (NP-SH)", "type": "in vivo, Albino Wistar rats", "conditions": "stomach tissue, 80% ethanol-treated rats, mean ± SE", "description": "as §1\nEstimation of non-protein sulfhydryls (NP_SH): Gastric mucosal non-protein sulfhydryls were measured according to the method. The glandular part of the stomach was homogenized in ice-cold 0.02 mmol/L ethylenediaminetetraacetic acid (EDTA). Aliquots of 5 mL of the homogenates were mixed in 15 mL test tubes with 4 mL of distilled water and 1 mL of 50% trichloroacetic acid (TCA). The tubes were shaken intermittently for 10 minutes and centrifuged at 3000 r/min. Two milliliters of supernatant were mixed with 4 mL of 0.4 mol/L Tris buffer at pH 8.9. Then 0.1 ML of 5, 5′-dithio-bis (2-nitrobenzoic acid) (DTNB) was added and the sample was shaken. The absorbance was measured within 5 minutes of DTNB addition at 412 nm against a reagent blank."}, "[6]": {"system": "total protein in stomach tissue, induced by 80% ethanol", "assay": "Total protein in stomach tissue", "type": "in vivo, Albino Wistar rats", "conditions": "mean ± SE"}, "in vivo": {"assay": "in vivo", "conditions": "mouse", "text": "(§2) At the end of the study period, expired animals were counted for the calculation of LD50. The following arithmetic method from Karber (Arch. Exptl. Pathol. Pharmakol, […], 162, 480-483) was used for the determination of LD50: LD50=LD100−Σ×(a×b)/n\n(§3) wherein n=total number of animals in a group; a=the difference between two successive doses of administered extract/substance; b=the average number of dead animals in two successive doses; and LD100=lethal dose causing the 100% death of all test animals.\n(§4) Table 8 provides the LD50 values of the compounds determined by the Karber method."}, "mouse": {"system": "mouse", "assay": "in vivo", "conditions": "24 h", "text": "as §2, §3, §4"}, "[7]": {"system": "gastric mucosa of rats treated with 80% Ethanol", "assay": "Histopathological evaluation of gastric tissue", "type": "in vivo, Albino Wistar rats", "conditions": "50 mg/kg; FIG. 15B-15F", "description": "Histopathological evaluation: Gastric tissue samples were fixed in neutral buffered formalin for 24 hours. Sections of gastric tissue were histopathologically examined to study the ulcerogenic and/or anti-ulcerogenic activity of compounds (N-3, N-8, N-11, and N-15). The tissues were fixed in 10% buffered formalin and processed using a VIP tissue processor. The processed tissues were embedded in paraffin blocks and sections about […] thick were cut using an American optical rotary microtome. These sections were stained with haematoxylin and eosin using routine procedures. The slides were examined microscopically for pathomorphological changes such as congestion, hemorrhage, edema, and erosions using an arbitrary scale for severity assessment of these changes (FIGS. 3-14)."}}, "note": "Marks after values point to notes of the source that are not given here."}
{"compound": "COc1ccc(C2NC(=O)NC=C2C(=O)c2ccc(N3CCCCC3)cc2)c(OC)c1OC", "note": "(centres unmarked) [Compound N-15, 4-(2,3,4-Trimethoxyphenyl)-5-[4-(piperidin-1-yl)benzoyl]-3,4-dihydropyrimidin-2(1H)-one]", "values": [{"measurement": "inhibition in vivo at 12.5 mg/kg", "setting": "[1]; compound 12.5 mg/kg", "value": 35.4, "unit": "%"}, {"measurement": "inhibition in vivo at 25 mg/kg", "setting": "[1]; compound 25 mg/kg", "value": 54.8, "unit": "%"}, {"measurement": "inhibition in vivo at 50 mg/kg", "setting": "[1]; compound 50 mg/kg", "value": 67.7, "unit": "%"}, {"measurement": "Ulcer Index, 0.2 mol/L NaOH", "setting": "[2]; 12.5 mg/kg", "value": "3.50 ± 0.22"}, {"measurement": "Ulcer Index, 25% NaCl", "setting": "[2]; 12.5 mg/kg", "value": "3.66 ± 0.33"}, {"measurement": "Ulcer Index, 80% EtOH", "setting": "[2]; 12.5 mg/kg", "value": "4.66 ± 0.33"}, {"measurement": "Ulcer Index, 0.2 mol/L NaOH", "setting": "[2]; 25 mg/kg", "value": "2.16 ± 0.30"}, {"measurement": "Ulcer Index, 25% NaCl", "setting": "[2]; 25 mg/kg", "value": "2.66 ± 0.33"}, {"measurement": "Ulcer Index, 80% EtOH", "setting": "[2]; 25 mg/kg", "value": "2.66 ± 0.33"}, {"measurement": "Ulcer Index, 0.2 mol/L NaOH", "setting": "[2]; 50 mg/kg", "value": "1.33 ± 0.42"}, {"measurement": "Ulcer Index, 25% NaCl", "setting": "[2]; 50 mg/kg", "value": "1.66 ± 0.33"}, {"measurement": "Ulcer Index, 80% EtOH", "setting": "[2]; 50 mg/kg", "value": "2.16 ± 0.30"}, {"measurement": "Gastric Lesion Ulcer Index", "setting": "[3]; 12.5 mg/kg", "value": "25.66 ± 1.08"}, {"measurement": "Intraluminal Bleeding Score", "setting": "[3]; 12.5 mg/kg", "value": "2.16 ± 0.30"}, {"measurement": "Gastric Lesion Ulcer Index", "setting": "[3]; 25 mg/kg", "value": "16.66 ± 0.33"}, {"measurement": "Intraluminal Bleeding Score", "setting": "[3]; 25 mg/kg", "value": "1.66 ± 0.21"}, {"measurement": "Gastric Lesion Ulcer Index", "setting": "[3]; 50 mg/kg", "value": "12.33 ± 0.84"}, {"measurement": "Intraluminal Bleeding Score", "setting": "[3]; 50 mg/kg", "value": "1.33 ± 0.33"}, {"measurement": "Gastric Wall Mucus", "setting": "[4]; 12.5 mg/kg", "value": "231.78 ± 4.77*^b μg/g"}, {"measurement": "Gastric Wall Mucus", "setting": "[4]; 25 mg/kg", "value": "248.09 ± 7.69**^b μg/g"}, {"measurement": "Gastric Wall Mucus", "setting": "[4]; 50 mg/kg", "value": "275.32 ± 5.37***^b μg/g"}, {"measurement": "NP-SH", "setting": "[5]; dose 12.5", "value": "3.38 ± 0.07^b nmol/g"}, {"measurement": "NP-SH", "setting": "[5]; dose 25", "value": "4.29 ± 0.24**^b nmol/g"}, {"measurement": "NP-SH", "setting": "[5]; dose 50", "value": "4.92 ± 0.30***^b nmol/g"}, {"measurement": "Total Protein", "setting": "[6]; dose 12.5, 80% ethanol-treated rats", "value": "71.45 ± 1.43*^b g/L"}, {"measurement": "Total Protein", "setting": "[6]; dose 25, 80% ethanol-treated rats", "value": "81.43 ± 3.65***^b g/L"}, {"measurement": "Total Protein", "setting": "[6]; dose 50, 80% ethanol-treated rats", "value": "96.60 ± 1.18***^b g/L"}, {"measurement": "LD50 at 24 h", "setting": "in vivo", "value": 116, "unit": "mg/kg"}, {"measurement": "Dead (of 10 animals)", "setting": "mouse; 5 mg/kg", "value": 0}, {"measurement": "Dead (of 10 animals)", "setting": "mouse; 25 mg/kg", "value": 1}, {"measurement": "Dead (of 10 animals)", "setting": "mouse; 50 mg/kg", "value": 3}, {"measurement": "Dead (of 10 animals)", "setting": "mouse; 100 mg/kg", "value": 4}, {"measurement": "Dead (of 10 animals)", "setting": "mouse; 200 mg/kg", "value": 9}, {"measurement": "Dead (of 10 animals)", "setting": "mouse; 300 mg/kg", "value": 10}, {"measurement": "Gastric section, effect on gastric mucosa (histology)", "setting": "[7]", "value": "intact normal mucosa"}]}
